One assay has as its system MDA-MB-435. As to the kind of experiment: Antiproliferative activity against human MDA-MB-435 cells. In kind it is functional, cell-based.
The test system of another assay is Aspergillus niger. In words: Antifungal activity against Aspergillus niger. In kind it is functional.
The next assay deals with Aspergillus flavus. As to the kind of experiment: Antifungal activity against Aspergillus flavus. In kind it is functional.
In the next assay the test system is HepG2. In words: cells. In kind it is functional, cell-based. The conditions noted are these: Homo sapiens.
Assay [1] relates to Staphylococcus aureus. As to the kind of experiment: Antibacterial activity against Staphylococcus aureus by disc diffusion method. In kind it is functional. On the technique in general: Agar diffusion results depend on both activity and mobility in agar.
Assay [2] concerns Bacillus subtilis. In words: Antibacterial activity against Bacillus subtilis by disc diffusion method. In kind it is functional.
Assay [3] relates to Escherichia coli. As to the kind of experiment: Antibacterial activity against Escherichia coli by disc diffusion method. In kind it is functional.
Assay [4] deals with Pseudomonas aeruginosa. In words: Antibacterial activity against Pseudomonas aeruginosa by disc diffusion method. In kind it is functional.
In assay [5] the test system is Mycobacterium tuberculosis. In words: Antimycobacterial activity against active stage of Mycobacterium tuberculosis H37Ra ATCC 25177 assessed as minimum inhibitory concentration by XTT assay. In kind it is functional. (Formazan colour is commonly taken as a measure of viable cells.)
The test system of assay [6] is Mycobacterium tuberculosis. In words: Antimycobacterial activity against dormant stage of Mycobacterium tuberculosis H37Ra ATCC 25177 assessed as minimum inhibitory concentration by XTT assay. In kind it is functional.
In assay [7] the test system is Escherichia coli. In words: Antibacterial activity against Escherichia coli NCIM 2688 measured after 8 hrs. In kind it is functional.
Assay [8] relates to Pseudomonas aeruginosa. As to the kind of experiment: Antibacterial activity against Pseudomonas aeruginosa NCIM […] measured after 8 hrs. In kind it is functional.
The subject of assay [9] is Bacillus subtilis. In words: Antibacterial activity against Bacillus subtilis NCIM 2079 measured after 12 hrs. In kind it is functional.
Assay [10] has as its system Staphylococcus aureus. As to the kind of experiment: Antibacterial activity against Staphylococcus aureus NCIM 2010 measured after 12 hrs. In kind it is functional.
Another assay relates to Streptococcus pneumoniae. As to the kind of experiment: Antibacterial activity against Streptococcus pneumoniae incubated for 24 to 48 hrs by agar diffusion well method. In kind it is functional. The note with it: time 24-48 hrs.
For assay [11], the system named is Bacillus subtilis. In words: Antibacterial activity against Bacillus subtilis incubated for 24 to 48 hrs by agar diffusion well method. In kind it is functional. The conditions noted are these: time 24-48 hrs.
Assay [12] has as its system Pseudomonas aeruginosa. As to the kind of experiment: Antibacterial activity against Pseudomonas aeruginosa incubated for 24 to 48 hrs by agar diffusion well method. In kind it is functional. The conditions noted are these: time 24-48 hrs.
The subject of assay [13] is Escherichia coli. In words: Antibacterial activity against Escherichia coli incubated for 24 to 48 hrs by agar diffusion well method. In kind it is functional. The note with it: time 24-48 hrs.
The next assay deals with Aspergillus fumigatus. In words: Antifungal activity against Aspergillus fumigatus RCMB 02568. In kind it is functional.
Assay [14] has as its system Syncephalastrum racemosum. As to the kind of experiment: Antifungal activity against Syncephalastrum racemosum RCMB 05922. In kind it is functional.
In another assay the test system is Geotrichum candidum. As to the kind of experiment: Antifungal activity against Geotrichum candidum RCMB 05097. In kind it is functional.
Another assay concerns Candida albicans. As to the kind of experiment: Antifungal activity against Candida albicans RCMB 05036. In kind it is functional.
For assay [15], the system named is Bacillus subtilis. In words: Antibacterial activity against Bacillus subtilis ATCC 465. In kind it is functional.
In another assay the test system is Bacillus pumilus. In words: Antibacterial activity against Bacillus pumilus PTCC 1114. In kind it is functional.
Another assay concerns Micrococcus luteus. In words: Antibacterial activity against Micrococcus luteus PTCC 1110. In kind it is functional.
A further assay concerns Streptococcus mutans. In words: Antibacterial activity against Streptococcus mutans PTCC 1601. In kind it is functional.
Assay [16] deals with Staphylococcus epidermidis. As to the kind of experiment: Antibacterial activity against Staphylococcus epidermidis ATCC 12228. In kind it is functional.
The test system of assay [17] is Staphylococcus aureus. As to the kind of experiment: Antibacterial activity against Staphylococcus aureus ATCC 25923. In kind it is functional.
For assay [18], the system named is Escherichia coli. As to the kind of experiment: Antimicrobial activity against Escherichia coli ATCC 25922. In kind it is functional.
For the next assay, the system named is Enterococcus faecalis. As to the kind of experiment: Antibacterial activity against Enterococcus faecalis ATCC 29737. In kind it is functional.
The next assay relates to MCF7. In words: Cytotoxicity against human MCF7 cells. In kind it is functional, cell-based.
Assay [19] can be described thus: Antioxidant activity assessed as DPPH radical scavenging activity at 1 mg/ml relative to control. In kind it is functional. (Loss of DPPH colour is used to gauge radical scavenging.)

The values that follow come from ChEMBL document CHEMBL5226286, “The application of isatin-based multicomponent-reactions in the quest for new bioactive and druglike molecules” (Eur J Med Chem, 2021).

In brackets after ≈: the same amount, converted by molar mass. Activity calls are given as the source filed them. No cut-off for these calls is given here.

Description for HepG2: Antiproliferative activity against human HepG2 cells

Broadly, the IC50 is the concentration that gives 50% inhibition. Low readings indicate higher potency, high ones lower potency. In the assay on MDA-MB-435, `N#CC1=C(N)OC2=C(C(=O)c3ccccc32)C12C(=O)Nc1ccc(Cl)cc12` (configuration not stated) displayed an IC50 of 2.1 µM.
In general, MIC refers to the lowest concentration that inhibits growth of the organism. Regarding `CC(C)CC1NC2(C(=O)Nc3ccccc32)C(C(=O)c2ccc(F)cc2)C1c1ccc(Cl)cc1` (configuration not stated), the MIC with Aspergillus niger and against Aspergillus flavus was 20 µg/mL (≈ 41.9 µM) each time.
Regarding `Cc1coc2c1C(=O)C(=O)c1c-2ccc2c1CCCC2(C)C` [TANSHINONE IIA], inhibition in the assay on HepG2 was half-maximal at 23.9 µM (IC50).
Take `CC1(C)CC(=O)C2=C(C1)N(c1c(Br)cc(Br)cc1Br)C(=O)C21C2=C(Nc3ccccc31)C(=O)CC(C)(C)C2` (configuration not stated): the MIC worked out at 100 µg/mL (≈ 142 µM) against Staphylococcus aureus [1], 62.5 µg/mL (≈ 88.9 µM) against Bacillus subtilis [2], 37.5 µg/mL (≈ 53.3 µM) in the assay on Escherichia coli [3] and 50 µg/mL (≈ 71.1 µM) in the assay on Pseudomonas aeruginosa [4].
As usually defined, the MIC90 is the lowest concentration that inhibits either 90% of growth or 90% of the strains tested, depending on the study. Low values mean greater potency, high ones weaker potency. Consider `Cc1cc2c(c(=O)o1)C1(C(=O)N(Cc3cn(Cc4ccc(Cl)cc4)nn3)c3ccc(Br)cc31)C(C#N)=C(N)O2` (configuration not stated), for which the MIC in assay [5] turned out to be 6.63 µg/mL (≈ 10.9 µM); in assay [6] it was 6.8 µg/mL (≈ 11.2 µM). For the same molecule, the MIC90 is 2.75 µg/mL (≈ 4.54 µM) with Escherichia coli [7], 2.33 µg/mL (≈ 3.85 µM) against Pseudomonas aeruginosa [8], 5.27 µg/mL (≈ 8.7 µM) against Bacillus subtilis [9] and 3.86 µg/mL (≈ 6.37 µM) against Staphylococcus aureus [10].
On to `CCOC(=O)N1C/C(=C\c2ccc(F)cc2F)C(=O)[C@@]2(C1)[C@H](c1ccc(F)cc1F)[C@H]1CCCN1[C@]21C(=O)Nc2ccccc21`, for which the MIC turned out to be 0.015 µg/mL (≈ 0.0242 µM) with Streptococcus pneumoniae; 0.015 µg/mL (≈ 0.0242 µM) against Bacillus subtilis [11]; 1.95 µg/mL (≈ 3.15 µM) with Escherichia coli [13]; 7.81 µg/mL (≈ 12.6 µM) against Aspergillus fumigatus; 1.95 µg/mL (≈ 3.15 µM) in [14]; 0.03 µg/mL (≈ 0.0484 µM) in the assay on Geotrichum candidum. In addition, the MIC entry in the assay with Pseudomonas aeruginosa [12] and in the assay with Candida albicans was “inactive” each time.
As for `CC1(C)CC(=O)C2=C(C1)N(c1ccccc1S)C(=O)C21C2=C(Nc3ccccc31)C(=O)CC(C)(C)C2` (configuration not stated), the MIC was 225 µg/mL (≈ 451 µM) with Staphylococcus aureus [1], 2.5 µg/mL (≈ 5.01 µM) against Bacillus subtilis [2], 188 µg/mL (≈ 376 µM) in the assay with Escherichia coli [3] and 150 µg/mL (≈ 301 µM) with Pseudomonas aeruginosa [4].
With `CC(C)CC1NC2(C(=O)Nc3ccccc32)C(C(=O)c2ccc(F)cc2)C1c1ccccc1` (configuration not stated), the MIC against Aspergillus niger and against Aspergillus flavus was 20 µg/mL (≈ 45.2 µM) in each case.
In the case of `O=C1c2c(Cl)cccc2NC2(C(=O)Nc3ccccc32)N1Nc1ccccc1` (configuration not stated), the MIC in the assay on Bacillus subtilis [15] was determined as 8 µg/mL (≈ 20.5 µM); in the assay with Bacillus pumilus it was 4 µg/mL (≈ 10.2 µM); with Micrococcus luteus, 8 µg/mL (≈ 20.5 µM); in the assay with Streptococcus mutans it was 8 µg/mL (≈ 20.5 µM); in [16], 4 µg/mL (≈ 10.2 µM); against Staphylococcus aureus [17], 2 µg/mL (≈ 5.12 µM). Also, the MIC in the assay with Escherichia coli [18] stood at 32 µg/mL (≈ 81.9 µM); in the assay on Enterococcus faecalis it was 128 µg/mL (≈ 328 µM).
Turning to `Cc1cc2c(c(=O)o1)C1(C(=O)N(Cc3cn(Cc4ccc(Cl)cc4)nn3)c3ccccc31)C(C#N)=C(N)O2` (configuration not stated), the MIC in [5] worked out at 5.21 µg/mL (≈ 9.89 µM); in assay [6], 4.39 µg/mL (≈ 8.33 µM).
`CCOC(=O)C1=C(C(=O)OCC)C2(NC1(C(=O)OCC)C(=O)OCC)C(=O)Nc1ccccc12` (configuration not stated): in the assay with MCF7, the IC50 was found to be 28 µM.
`CO[C@H]1/C=C/O[C@@]2(C)Oc3c(C)c(O)c4c(O)c(c(/C=N/N5CCN(C)CC5)c(O)c4c3C2=O)NC(=O)/C(C)=C\C=C\[C@H](C)[C@H](O)[C@@H](C)[C@@H](O)[C@@H](C)[C@H](OC(C)=O)[C@@H]1C` [RIFAMPIN]: the MIC in assay [5] came to 0.51 µg/mL (≈ 0.62 µM); in assay [6] it was 0.75 µg/mL (≈ 0.911 µM).
Turning to `CCOC(=O)N1C/C(=C\c2ccc(OC)cc2)C(=O)[C@@]2(C1)[C@H](c1ccc(OC)cc1)[C@H]1CCCN1[C@]21C(=O)Nc2ccccc21`, the MIC was 0.98 µg/mL (≈ 1.61 µM) in the assay with Streptococcus pneumoniae; 0.015 µg/mL (≈ 0.0247 µM) against Bacillus subtilis [11]; 15.6 µg/mL (≈ 25.7 µM) against Escherichia coli [13]; 1.95 µg/mL (≈ 3.21 µM) against Aspergillus fumigatus; 0.98 µg/mL (≈ 1.61 µM) in [14]; 0.49 µg/mL (≈ 0.806 µM) against Geotrichum candidum. The MIC result in the assay with Pseudomonas aeruginosa [12] and in the assay on Candida albicans was “inactive” in each case.
In the case of `CCOC(=O)C1=C(C(=O)OCC)C2(NC1(C(=O)OCC)C(=O)OCC)C(=O)N(C)c1ccc(C)cc12` (configuration not stated), the midpoint of inhibition with MCF7, the IC50, lay at 20.8 µM.
With `CC1(C)CC(=O)C2=C(C1)OC(N)=C(C#N)C21C(=O)N(Cc2cn(Cc3ccc(Cl)cc3)nn2)c2ccc(Cl)cc21` (configuration not stated), the MIC in assay [5] is more than 50 µg/mL; in [6] it was 8.07 µg/mL (≈ 14 µM). Also, the MIC90 in the assay with Escherichia coli [7] turned out to be 1.78 µg/mL (≈ 3.09 µM); against Pseudomonas aeruginosa [8] it was 5.29 µg/mL (≈ 9.19 µM); in the assay on Bacillus subtilis [9], 1.14 µg/mL (≈ 1.98 µM); against Staphylococcus aureus [10] it was 3.55 µg/mL (≈ 6.17 µM).
`O=C(c1ccc(F)cc1)C1C(c2ccc(Cl)cc2)CNC12C(=O)Nc1ccccc12` (configuration not stated): in [19], the Activity is 88.7%.
In the case of `CC1(C)CC(=O)C2=C(C1)N(c1ccccc1F)C(=O)C21C2=C(Nc3ccccc31)C(=O)CC(C)(C)C2` (configuration not stated), the MIC entry in the assay on Staphylococcus aureus [1] is “inactive”. Besides, the MIC was 75 µg/mL (≈ 155 µM) in the assay with Bacillus subtilis [2], 37.5 µg/mL (≈ 77.4 µM) with Escherichia coli [3] and 50 µg/mL (≈ 103 µM) with Pseudomonas aeruginosa [4].
`Cc1ccc(Cn2cc(CN3C(=O)C4(C(C#N)=C(N)Oc5cc(C)oc(=O)c54)c4cc(Cl)ccc43)nn2)cc1` (configuration not stated): the MIC is more than 50 µg/mL in assay [5] and 11.6 µg/mL (≈ 21.4 µM) in assay [6]. Also, the MIC90 against Escherichia coli [7] was found to be 2.65 µg/mL (≈ 4.9 µM); against Pseudomonas aeruginosa [8] it was 4.88 µg/mL (≈ 9.02 µM); against Bacillus subtilis [9], 7.19 µg/mL (≈ 13.3 µM); against Staphylococcus aureus [10], 2.41 µg/mL (≈ 4.45 µM).
